Here are results for one compound from US10596218B2, “Coix seed oil containing 16 glycerides, and pharmaceutical preparation and use thereof” (ZHEJIANG KANGLAITE GROUP CO., LTD., priority 2014, dated 2020).

What all share (assay type): cell-based
Experiment [1] deals with H460 (human lung cancer cells). The experiment can be described thus: MTT inhibition of cell growth in vitro, H460. As to conditions: NCI-H460, 48 h, read-out: IC50 values of samples in vitro. An excerpt: (§1) (1) Cell lines: PANC-1 (human pancreatic cancer cells), SKOV3 (human ovarian cancer cells), MCF-7 (human breast cancer cells), Bcap-37 (human breast cancer cells), SMMC-7721 (human hepatic cancer cells), HepG-2 (human hepatic cancer cells), A549 (human lung cancer cells) and H460 (human lung cancer cells), storaged and passaged maintainably in Research and Evaluation Center for Pharmacology, Shanghai Institute of Pharmaceutical Industry;
(§2) The inhibition effects of samples on the above-mentioned cell lines were detected by using MTT method. The specific procedures were as follows: […]
(§3) (4) Cells in a logarithmic growth stage were trypsinized and washed, then re-suspended in the medium containing 10% calf serum. The number of living cells was counted in Trypan blue dye exclusion method and cell suspensions were adjusted into a density of 2×10^5 cell/ml. […]
(§4) (7) 100 μl of crystal dissolving solution was added into each well and cells were incubated continuously in the incubator overnight, so as to dissolve the resulted formazan crystals sufficiently. Then, the absorbance value was measured at 570 nm for each well.
(§5) (8) Based on absorbance values, inhibition rates on the cell growth were calculated for sample groups of various concentrations. The calculation formula was as follows: (1−mean absorbance of experimental wells/mean absorbance of control wells)×100%

Experiment [2] relates to SKOV3 (human ovarian cancer cells). The experiment can be described thus: MTT inhibition of cell growth in vitro, SKOV3. As to conditions: SK-OV-3, 48 h, read-out: IC50 values of samples in vitro.
Source text: as §1, §2, §3, §4, §5

The subject of experiment [3] is SMMC-7721 (human hepatic cancer cells). The experiment can be described thus: MTT inhibition of cell growth in vitro, SMMC-7721. As to conditions: SMMC-7721, MTT, 48 h, read-out: IC50 values of samples in vitro.
Source text: as §1, §2, §3, §4, §5

For experiment [4], the system named is PANC-1 (human pancreatic cancer cells). The experiment is described as follows: MTT inhibition of cell growth in vitro, PANC-1. As to conditions: PANC-1, MTT, 48 h, read-out: IC50 values of samples in vitro.
Source text: as §1, §2, §3, §4, §5

The subject of experiment [5] is Bcap-37 (human breast cancer cells). The experiment can be described thus: MTT inhibition of cell growth in vitro, Bcap-37. As to conditions: Bcap37, Bcap-37, MTT, 48 h, read-out: IC50 values of samples in vitro.
Source text: as §1, §2, §3, §4, §5

Each structure is given as a SMILES string. Converted amounts (≈) assume the structure as drawn.

With `CC(=O)O[C@H]1C(=O)[C@@]2(C)[C@H]([C@H](OC(=O)c3ccccc3)[C@]3(O)C[C@H](OC(=O)[C@H](O)[C@@H](NC(=O)c4ccccc4)c4ccccc4)C(C)=C1C3(C)C)[C@]1(OC(C)=O)CO[C@@H]1C[C@@H]2O` [Taxol], the concentration for half-maximal inhibition (IC50) – broadly, the concentration that inhibits the measured activity by half – is 0.49 µg/mL (≈ 0.574 µM) in experiment [1]; 0.22 µg/mL (≈ 0.258 µM) in experiment [2]; 0.12 µg/mL (≈ 0.141 µM) in experiment [3]; 0.44 µg/mL (≈ 0.515 µM) in experiment [4]; 0.28 µg/mL (≈ 0.328 µM) in experiment [5].
